Experimental data taken from patent US10351522B2, “Sulfonamide derivative and pharmaceutically acceptable acid addition salt thereof” (UNIVERSITY OF TSUKUBA, priority 2015, dated 2019).
Like-named read-outs stand apart in the source and are kept apart here.

Key:
human OX1R = target: T1, human OX1R (Homo sapiens, UniProt O43613); assay: Agonist activity against OX1R: intracellular calcium (Fura-2AM, FDSS7000) in CHOOX1R cells; type: cell-based; details: relative to orexin-A as full agonist (100%); for Emax at 0.1 µM / Emax at 1 µM / Emax at 10 µM: read-out: Response (%) OX1R
T1 construct: expressed in transfected cells; host or cells: CHO (Chinese hamster ovary) cells, line CHOOX1R, co-expressing NFAT-luciferase
T1 sequence (O43613 1-425): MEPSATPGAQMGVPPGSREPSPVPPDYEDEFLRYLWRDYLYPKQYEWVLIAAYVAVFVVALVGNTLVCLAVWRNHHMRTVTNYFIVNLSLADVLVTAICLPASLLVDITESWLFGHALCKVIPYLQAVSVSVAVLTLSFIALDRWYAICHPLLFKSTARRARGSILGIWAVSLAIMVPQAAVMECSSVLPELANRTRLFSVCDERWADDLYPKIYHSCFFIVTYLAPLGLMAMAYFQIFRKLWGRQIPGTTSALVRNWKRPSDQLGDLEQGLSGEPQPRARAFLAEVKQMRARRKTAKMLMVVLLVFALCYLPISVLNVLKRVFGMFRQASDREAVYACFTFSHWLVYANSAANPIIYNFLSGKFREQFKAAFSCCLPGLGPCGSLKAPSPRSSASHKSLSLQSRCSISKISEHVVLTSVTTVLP
Summary of the method: (§1)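 Response is agonist activity at 0.1, 1.0 or 10 μM compound as a percentage of the orexin-A full-agonist maximum, taken from 340/380 nm Fura-2 ratio changes. Each cell line is CHO constitutively expressing human OX1R or OX2R with NFAT-luciferase, dye-loaded 60 min with 5 μM Fura-2AM; compound range 10^−7–10^−5 M, 1% DMSO.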

human OX2R = target: T2, human OX2R (Homo sapiens, UniProt O43614); assay: Agonist activity against OX2R: intracellular calcium (Fura-2AM, FDSS7000) in CHOOX2R cells; type: cell-based; details: relative to orexin-A as full agonist (100%)
T2 construct: expressed in transfected cells; host or cells: CHO (Chinese hamster ovary) cells, line CHOOX2R, co-expressing NFAT-luciferase
T2 sequence (O43614 1-444): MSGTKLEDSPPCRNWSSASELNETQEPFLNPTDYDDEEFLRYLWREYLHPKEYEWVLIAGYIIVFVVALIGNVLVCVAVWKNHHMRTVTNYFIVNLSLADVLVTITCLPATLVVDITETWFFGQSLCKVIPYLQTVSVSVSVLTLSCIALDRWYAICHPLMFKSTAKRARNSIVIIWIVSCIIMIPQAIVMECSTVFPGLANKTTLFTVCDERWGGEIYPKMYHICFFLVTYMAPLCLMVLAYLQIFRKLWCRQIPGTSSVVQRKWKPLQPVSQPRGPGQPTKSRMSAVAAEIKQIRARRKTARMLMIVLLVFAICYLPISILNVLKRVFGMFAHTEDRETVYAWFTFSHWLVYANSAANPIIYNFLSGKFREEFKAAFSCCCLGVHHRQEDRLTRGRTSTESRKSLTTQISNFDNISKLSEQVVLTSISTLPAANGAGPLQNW
Summary of the method: as §1

SMILES | Response (%) OX1R (human OX1R; 0.1 μM test compound) [%] | Response (%) OX1R (human OX1R; 1.0 μM test compound) [%] | Response (%) OX1R (human OX1R; 10 μM test compound) [%] | Response (%) OX2R (human OX2R; 0.1 μM test compound) [%] | Response (%) OX2R (human OX2R; 1.0 μM test compound) [%] | Response (%) OX2R (human OX2R; 10 μM test compound) [%] | further results
CNc1cccc(NS(=O)(=O)c2cc(-c3cccc(C(=O)N(C)C)c3)ccc2OC)c1 [Example 95, 4′-methoxy-N,N-dimethyl-3′-(N-(3-(methylamino)phenyl)sulfamoyl)-[1,1′-biphenyl]-3-carboxamide] |  |  |  |  |  |  | Emax at 0.1 µM (human OX1R; test compound 0.1 μM): < 5%; Emax at 1 µM (human OX1R; test compound 1.0 μM): < 5%; Emax at 10 µM (human OX1R; test compound 10 μM): < 5%; Response (%) OX2R (human OX2R; test compound 0.1 μM): <5%; Response (%) OX2R (human OX2R; test compound 1.0 μM): 11%; Response (%) OX2R (human OX2R; test compound 10 μM): 68%
COc1ccc(-c2cccc(C(=O)N(C)C)c2)cc1S(=O)(=O)Nc1cccc(NC(=O)Nc2cccc(N(C)C)c2)n1 [Example 124] |  |  |  |  |  |  | Response (%) OX1R (human OX1R; test compound 0.1 μM): 8%; Response (%) OX1R (human OX1R; test compound 1.0 μM): 7%; Response (%) OX1R (human OX1R; test compound 10 μM): 8%; Response (%) OX2R (human OX2R; test compound 0.1 μM): 9%; Response (%) OX2R (human OX2R; test compound 1.0 μM): 78%; Response (%) OX2R (human OX2R; test compound 10 μM): 147%
COc1ccc(-c2cccc(C(=O)N(C)C)c2)cc1S(=O)(=O)Nc1cccc(NCc2ccccc2O)c1 [Example 26] | <5 | <5 | 9 | <5 | 51 | 101 | 
COc1ccc(Nc2cccc(NS(=O)(=O)c3cc(-c4cccc(C(=O)N(C)C)c4)ccc3OC)c2)cc1OC [Example 33] | <5 | <5 | 50 | 37 | 92 | 87 | 
COc1ccc(-c2cccc(C(=O)N(C)C)c2)cc1S(=O)(=O)Nc1cccc(NC(=O)Nc2ccc(N(C)C)nc2)c1 [Example 71] | 6 | <5 | 10 | 106 | 97 | 113 | 
COc1ccc(C(=O)NCCNC(=O)OC(C)(C)C)cc1S(=O)(=O)Nc1cccc(NC(=O)Nc2cccc(N(C)C)c2)c1 [Example 105] |  |  |  |  |  |  | Response (%) OX1R (human OX1R; test compound 0.1 μM): 8%; Response (%) OX1R (human OX1R; test compound 1.0 μM): 7%; Response (%) OX1R (human OX1R; test compound 10 μM): 8%; Response (%) OX2R (human OX2R; test compound 0.1 μM): 9%; Response (%) OX2R (human OX2R; test compound 1.0 μM): 32%; Response (%) OX2R (human OX2R; test compound 10 μM): 92%
COc1ccccc1NC(=O)Nc1cccc(NS(=O)(=O)c2cc(-c3cccc(C(=O)N(C)C)c3)ccc2OC)c1 [Example 52] | <5 | <6 | <7 | 43 | 81 | 78 | 
COc1ccc(-c2cccc(C(=O)N(C)C)c2)cc1S(=O)(=O)Nc1cccc(NC(=O)Nc2cccc(N)c2)c1 [Example 63] | 9 | 9 | 7 | 8 | 55 | 66 | 
COc1ccc(-c2cccc(C(=O)N(C)C)c2)cc1S(=O)(=O)Nc1cccc(NC(=O)Nc2cc([N+](=O)[O-])cc([N+](=O)[O-])c2)c1 [Example 47] | <5 | <5 | <5 | 7 | 81 | 102 | 
COc1cccc(S(=O)(=O)Nc2cccc(NS(=O)(=O)c3cc(-c4cccc(C(=O)N(C)C)c4)ccc3OC)c2)c1 [Example 85, 4′-methoxy-3′-(N-(3-(3-methoxyphenylsulfonamido)phenyl)sulfamoyl)-N,N-dimethyl-[1,1′-biphenyl]-3-carboxamide] |  |  |  |  |  |  | Emax at 0.1 µM (human OX1R; test compound 0.1 μM): < 5%; Emax at 1 µM (human OX1R; test compound 1.0 μM): < 5%; Emax at 10 µM (human OX1R; test compound 10 μM): < 5%; Response (%) OX2R (human OX2R; test compound 0.1 μM): <5%; Response (%) OX2R (human OX2R; test compound 1.0 μM): <5%; Response (%) OX2R (human OX2R; test compound 10 μM): 12%
COc1ccc(-c2cccc(C(=O)N(C)C)c2)cc1S(=O)(=O)Nc1cccc(NC(=S)Nc2cccc(C)c2)c1 [Example 76] | <5 | 20 | 55 | 93 | 90 | 89 | 
COc1ccc(-c2cccc(C(=O)N(C)C)c2)cc1S(=O)(=O)Nc1cccc(NC(=O)c2ccc(N(C)C)cc2)c1 [Example 8] | 9 | 8 | 27 | 8 | 13 | 61 | 
COc1ccc(-c2cccc(C(=O)N(C)C)c2)cc1S(=O)(=O)Nc1cccc(/N=N/c2ccc(N(C)C)cc2CO)c1 [Example 97, (E)-3′-(N-(3-((4-(dimethylamino)-2-(hydroxymethyl)phenyl)diazenyl)phenyl)sulfamoyl)-4′-methoxy-N,N-dimethyl-[1,1-biphenyl]-3-carboxamide] |  |  |  |  |  |  | Emax at 0.1 µM (human OX1R; test compound 0.1 μM): < 5%; Emax at 1 µM (human OX1R; test compound 1.0 μM): < 5%; Emax at 10 µM (human OX1R; test compound 10 μM): 11%; Response (%) OX2R (human OX2R; test compound 0.1 μM): 25%; Response (%) OX2R (human OX2R; test compound 1.0 μM): 84%; Response (%) OX2R (human OX2R; test compound 10 μM): 108%
COc1cccc(CNc2cccc(NS(=O)(=O)c3cc(-c4cccc(C(=O)N(C)C)c4)ccc3OC)c2)c1 [Example 23] | <5 | 10 | 51 | 54 | 95 | 86 | 
COc1ccc(-c2cccc(C(=O)N(C)C)c2)cc1S(=O)(=O)Nc1cccc(NCc2ccccc2)c1 [Example 20, 3′-(N-(3-(benzylamino)phenyl)sulfamoyl)-4′-methoxy-N,N-dimethyl-[1,1′-biphenyl]-3-carboxamide] |  |  |  | <5 | 51 | 78 | Emax at 0.1 µM (human OX1R; 0.1 μM test compound): < 5%; Emax at 1 µM (human OX1R; 1.0 μM test compound): < 5%; Emax at 10 µM (human OX1R; 10 μM test compound): 17%

Further lines, with some results ahead:

Response (%) OX1R (human OX1R; 0.1 μM test compound) [%] | Response (%) OX1R (human OX1R; 1.0 μM test compound) [%] | Response (%) OX1R (human OX1R; 10 μM test compound) [%] | Response (%) OX2R (human OX2R; 0.1 μM test compound) [%] | Response (%) OX2R (human OX2R; 1.0 μM test compound) [%] | Response (%) OX2R (human OX2R; 10 μM test compound) [%] | SMILES | further results
6 | 6 | 7 | 79 | 70 | 60 | COc1ccc(-c2cccc(C(=O)N(C)C)c2)cc1S(=O)(=O)Nc1cccc(NC(=O)NCc2ccccc2)c1 [Example 66] | 
<5 | <5 | 32 | 73 | 59 | 53 | COc1ccc(-c2cccc(C(=O)N(C)C)c2)cc1S(=O)(=O)Nc1cccc(NC(=O)Nc2ccc(N(C)C)cc2)c1 [Example 39] | 
6 | 6 | 6 | 7 | 90 | 127 | COc1ccc(-c2cccc(C(=O)N(C)C)c2)cc1S(=O)(=O)Nc1cccc(NC(=O)Nc2cccnc2)c1 [Example 69] | 
6 | 7 | 7 | 15 | 13 | 64 | COc1ccc(-c2cccc(C(=O)N(C)C)c2)cc1S(=O)(=O)Nc1cccc(NC(=O)OC(C)(C)C)c1 [Example 74] | 
<5 | <5 | <5 | 68 | 82 | 71 | COc1ccc(-c2cccc(C(=O)N(C)C)c2)cc1S(=O)(=O)Nc1cccc(NC(=O)Nc2cccc(C)c2)c1 [Example 38] | 
<5 | <5 | 10 | <5 | 63 | 93 | COc1ccc(-c2cccc(C(=O)N(C)C)c2)cc1S(=O)(=O)Nc1cccc(Nc2ccc3c(c2)OCO3)c1 [Example 36] | 
14 | 9 | 12 | <5 | 6 | 23 | COc1ccc(-c2cccc(C(=O)N(C)C)c2)cc1S(=O)(=O)Nc1cccc(NC(=O)c2cccc(Br)c2)c1 [Example 3] | 
